This passage reports IC50 results from patent publication US8895733B2 (Novartis AG, priority 2010, dated 2014).

Where two headings read alike, the source gives them in different places.

The target of the test is T1, Nav 1.7 (Homo sapiens, UniProt Q15858).
T1 construct: expressed in transfected cells
Description: Whole-cell voltage clamp electrophysiology, manual patch clamp (marker b in Table of Examples). Type of test: cell-based. The note with it: read-out: Nav 1.7 activity. The source says: a.IonWork Quattro data, b=Manual patch clamp data, c=Automated patch clamp data M=Method
Whole-Cell Voltage Clamp Electrophysiology Assay
Patch-clamp electrophysiology is considered the gold standard technique for investigation of ion channel function and pharmacology. Using this method, sodium channel currents can be measured in cells, which stably (or transiently) express the sodium channel subtype of interest. Application of compounds during such experiments provides a functional measure of the activity and potency of compounds affecting the ion channel of interest.
Electrophysiological studies can also be performed using the whole cell configuration of the standard manual patch clamp technique as described in the literature (e.g. Pflugers Arch., 1981, 391(2), 85-100). In this assay, cells that express the voltage-gated sodium channel protein of interest are exposed to the drugs by conventional microperfusion systems, or by a home-built perfusion system. A suitable voltage stimulus protocol is used to activate the voltage-gated sodium channels.
A suitable voltage stimulus protocol is used to activate voltage-gated sodium channel proteins of interest. A typical stimulus protocol may consist of sweeps of sequential voltage pulses starting from a holding potential (i.e. −65 mV), to a more positive and depolarising test pulse potential (i.e. −10 mV) and finally to a more negative and hyperpolarising potential (i.e. −100 mV). According to the biophysics of the voltage-gated ion channel of interest and interest in channel configuration the voltages and durations of the pulses as well as the overall frequency of sweeps applied might vary. Accordingly, a stimulus protocol was designed to assess compounds due to their potential to block NaV1.7 channels primarily in inactivated state. Selectivity over other voltage-gated sodium channel members was assessed by protocols that reflect the native function of the channels (i.e. heart rate or firing of neurons).
Electrophysiological studies can also be performed using the whole cell configuration of the standard manual patch clamp technique as described in the literature (e.g. Pflugers Arch., 1981, 391(2), 85-100). In this assay, cells that express the human voltage-gated sodium channel protein of interest are exposed to the drugs by conventional microperfusion systems, or by a home-built perfusion system. A suitable voltage stimulus protocol is used to activate the voltage-gated sodium channels. A suitable voltage stimulus protocol may consist of sequential voltage pulses from a holding potential, each first hyperpolarizing the cell, then depolarizing the channels for a brief period. A particularly suitable holding potential may be a voltage allowing a fraction of channels to remain in an inactivated state, like −60 mV. A suitable hyperpolarizing voltage and duration may be −120 mV for 100 ms, and depolarization voltage and duration may be −20 mV for 25 ms, and a suitable frequency of pulses may be 0.1 Hz, but may also have other parameters. Accordingly, a stimulus protocol was designed to assess compounds due to their potential to block NaV1.7 channels primarily in inactivated state. Selectivity over other voltage-gated sodium channel members was assessed by protocols that reflect the native function of the channels (i.e. heart rate or firing of neurons).

[1] abbreviates: marker b: Manual patch clamp data.
Setting [2] is: marker b = Manual patch clamp data.

T1 sequence (Q15858 whole entry): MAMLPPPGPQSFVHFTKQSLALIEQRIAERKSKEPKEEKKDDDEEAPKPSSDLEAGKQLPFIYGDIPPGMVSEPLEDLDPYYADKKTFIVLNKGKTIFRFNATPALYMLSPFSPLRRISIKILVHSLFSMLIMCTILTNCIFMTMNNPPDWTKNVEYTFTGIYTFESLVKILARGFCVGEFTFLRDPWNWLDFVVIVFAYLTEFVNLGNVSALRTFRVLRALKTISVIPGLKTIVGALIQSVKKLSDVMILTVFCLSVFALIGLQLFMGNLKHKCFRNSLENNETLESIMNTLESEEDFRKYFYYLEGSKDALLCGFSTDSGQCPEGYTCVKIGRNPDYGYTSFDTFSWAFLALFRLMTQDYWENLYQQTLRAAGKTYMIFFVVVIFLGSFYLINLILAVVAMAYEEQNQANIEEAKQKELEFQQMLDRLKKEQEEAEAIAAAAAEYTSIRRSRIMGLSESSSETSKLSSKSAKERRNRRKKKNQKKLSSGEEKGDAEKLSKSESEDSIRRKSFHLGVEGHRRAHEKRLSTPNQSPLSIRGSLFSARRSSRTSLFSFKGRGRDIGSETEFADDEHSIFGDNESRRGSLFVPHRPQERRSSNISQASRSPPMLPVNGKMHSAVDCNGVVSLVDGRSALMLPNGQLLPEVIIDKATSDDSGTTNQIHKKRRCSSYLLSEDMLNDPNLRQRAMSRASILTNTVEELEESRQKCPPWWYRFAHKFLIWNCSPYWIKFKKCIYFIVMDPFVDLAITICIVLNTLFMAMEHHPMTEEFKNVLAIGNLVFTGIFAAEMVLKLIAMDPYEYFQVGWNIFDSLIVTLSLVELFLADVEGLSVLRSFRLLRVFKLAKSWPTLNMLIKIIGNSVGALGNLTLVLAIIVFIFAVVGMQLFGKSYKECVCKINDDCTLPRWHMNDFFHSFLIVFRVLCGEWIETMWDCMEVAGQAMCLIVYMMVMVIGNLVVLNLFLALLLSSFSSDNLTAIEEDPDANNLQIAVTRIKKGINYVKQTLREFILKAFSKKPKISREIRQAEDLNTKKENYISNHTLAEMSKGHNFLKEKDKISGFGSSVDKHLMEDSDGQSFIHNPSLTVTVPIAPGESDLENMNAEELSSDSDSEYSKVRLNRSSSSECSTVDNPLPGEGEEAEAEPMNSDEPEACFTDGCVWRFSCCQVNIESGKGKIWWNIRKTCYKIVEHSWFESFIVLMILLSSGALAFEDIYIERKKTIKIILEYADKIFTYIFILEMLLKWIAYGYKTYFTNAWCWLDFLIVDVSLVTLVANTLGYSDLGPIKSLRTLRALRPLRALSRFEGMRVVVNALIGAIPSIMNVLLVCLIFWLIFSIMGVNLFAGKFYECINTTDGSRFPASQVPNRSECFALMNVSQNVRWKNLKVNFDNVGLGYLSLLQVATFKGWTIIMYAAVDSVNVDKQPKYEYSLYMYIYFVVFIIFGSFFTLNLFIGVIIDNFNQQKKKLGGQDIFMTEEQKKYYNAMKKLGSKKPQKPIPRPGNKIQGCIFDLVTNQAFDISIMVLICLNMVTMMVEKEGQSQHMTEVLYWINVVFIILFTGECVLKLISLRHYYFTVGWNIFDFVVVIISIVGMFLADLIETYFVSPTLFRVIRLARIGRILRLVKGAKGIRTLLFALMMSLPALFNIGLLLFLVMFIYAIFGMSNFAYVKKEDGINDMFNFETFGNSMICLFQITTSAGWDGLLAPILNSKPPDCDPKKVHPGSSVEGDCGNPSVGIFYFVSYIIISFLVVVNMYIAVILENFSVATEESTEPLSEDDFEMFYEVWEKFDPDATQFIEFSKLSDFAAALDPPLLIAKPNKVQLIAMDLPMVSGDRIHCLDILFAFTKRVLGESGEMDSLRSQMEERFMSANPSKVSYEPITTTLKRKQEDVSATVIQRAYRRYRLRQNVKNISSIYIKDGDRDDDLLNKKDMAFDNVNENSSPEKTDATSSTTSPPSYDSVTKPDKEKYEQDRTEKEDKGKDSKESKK

For `CN(c1ccccc1)c1nc(N)nc(-c2noc(-c3ccc(Cl)cc3)n2)n1` [Example 36, 6-[5-(4-Chloro-phenyl)-[1,2,4]oxadiazol-3-yl]-N-methyl-N-phenyl-[1,3,5]triazine-2,4-diamine], the IC50 under setting [1] amounted to 0.165 µM.
`Cc1cccc(-c2nc(-c3nc(N)nc(N(C)c4ccccc4)n3)no2)n1` [Example 271, 2-N-methyl-6-[5-(6-methylpyridin-2-yl)-1,2,4-oxadiazol-3-yl]-2-N-phenyl-1,3,5-triazine-2,4-diamine]: under setting [2], the IC50 worked out at 0.945 µM.
Turning to `CN(c1ccccc1)c1nc(N)nc(-c2noc(-c3ccccc3Cl)n2)n1` [Example 23, 6-[5-(2-Chloro-phenyl)-[1,2,4]oxadiazol-3-yl]-N-methyl-N-phenyl-[1,3,5]triazine-2,4-diamine], the IC50 under setting [1] worked out at 0.106 µM.
As for `CN(c1nc(N)nc(-c2noc(-c3ccco3)n2)n1)c1ccccc1F` [Example 14, N-(2-Fluoro-phenyl)-6-(5-furan-2-yl-[1,2,4]oxadiazol-3-yl)-N-methyl-[1,3,5]triazine-2,4-diamine], the IC50 under setting [1] came to 0.198 µM.
Consider `Cc1cccc(Nc2nc(N)nc(-c3noc(-c4ccco4)n3)n2)c1F` [Example 112, N-(2-Fluoro-3-methyl-phenyl)-6-(5-furan-2-yl-[1,2,4]oxadiazol-3-yl)-[1,3,5]triazine-2,4-diamine], for which the IC50 under setting [1] came to 0.087 µM.
As to `CN(c1ccccc1)c1nc(N)nc(-c2noc(-c3cccs3)n2)n1` [Example 11, N-Methyl-N-phenyl-6-(5-thiophen-2-yl-[1,2,4]oxadiazol-3-yl)-[1,3,5]triazine-2,4-diamine], the IC50 under setting [1] turned out to be 0.216 µM.
For `CN(c1ccccc1)c1nc(N)nc(-c2noc(N3CCCCC3)n2)n1` [Example 46, N-Methyl-N-phenyl-6-(5-piperidin-1-yl-[1,2,4]oxadiazol-3-yl)-[1,3,5]triazine-2,4-diamine], under setting [1], the IC50 was found to be 0.511 µM.
As to `CN(c1ccccc1)c1nc(N)nc(-c2noc(-c3ccc([S+]([O-])CC(F)(F)F)nc3)n2)n1` (centres unmarked) [Example 320, 2-N-methyl-2-N-phenyl-6-(5-{6-[(2,2,2-trifluoroethane)sulfinyl]pyridin-3-yl}-1,2,4-oxadiazol-3-yl)-1,3,5-triazine-2,4-diamine], the IC50 under setting [2] was determined as 0.276 µM.
For `CN(c1ccccc1)c1nc(N)nc(-c2noc(-c3ccc(OC(F)(F)F)nc3)n2)n1` [Example 133, 2-N-methyl-2-N-phenyl-6-{5-[6-(trifluoromethoxy)pyridin-3-yl]-1,2,4-oxadiazol-3-yl}-1,3,5-triazine-2,4-diamine], the IC50 under setting [1] was found to be 0.635 µM.
On to `CN(c1ccccc1)c1nc(N)nc(-c2noc(C3CCN(Cc4ccccc4)C3)n2)n1` (centres unmarked) [Example 207, 6-[5-(1-benzylpyrrolidin-3-yl)-1,2,4-oxadiazol-3-yl]-2-N-methyl-2-N-phenyl-1,3,5-triazine-2,4-diamine], for which the IC50 under setting [2] came to 0.097 µM.
Regarding `Nc1nc(Nc2cccc(F)c2F)nc(-c2noc(-c3ccco3)n2)n1` [Example 113, N-(2,3-Difluoro-phenyl)-6-(5-furan-2-yl-[1,2,4]oxadiazol-3-yl)-[1,3,5]triazine-2,4-diamine], under setting [1], the IC50 turned out to be 0.118 µM.
In the case of `Nc1nc(Nc2ccccc2)nc(-c2noc(-c3ncccc3F)n2)n1` [Example 346, 6-[5-(3-Fluoropyridin-2-yl)-1,2,4-oxadiazol-3-yl]-2-N-phenyl-1,3,5-triazine-2,4-diamine], under setting [2], the IC50 came out at 0.337 µM.
With `Cc1ccc(F)c(N(C)c2nc(N)nc(-c3noc(-c4ccco4)n3)n2)c1` [Example 105, N-(2-Fluoro-5-methyl-phenyl)-6-(5-furan-2-yl-[1,2,4]oxadiazol-3-yl)-N-methyl-[1,3,5]triazine-2,4-diamine], under setting [1], the IC50 was 0.059 µM.
With `COc1cccc(F)c1-c1nc(-c2nc(N)nc(N(C)c3ccccc3)n2)no1` [Example 81, 6-[5-(2-Fluoro-6-methoxy-phenyl)-[1,2,4]oxadiazol-3-yl]-N-methyl-N-phenyl-[1,3,5]triazine-2,4-diamine], the IC50 under setting [1] worked out at 0.021 µM.
